Measurements published in ChEMBL document CHEMBL1150969, “New alkaloids from the papua new guinean sponge agelas nakamurai” (J Nat Prod, 1998).
≈ marks a conversion by molar mass, not a printed value. Calls of active or inactive are those of the source. The calls are words filed in the database; no cut-off is given here.

Tests used:
[1] = tested on: Staphylococcus epidermidis; test: Antimicrobial activity against Staphylococcus epidermidis 13889; type: functional, organism-based
Enterococcus faecalis = test: Antimicrobial activity against Enterococcus faecalis 12964; type: functional, organism-based
Staphylococcus aureus [2] = test: Antimicrobial activity against Staphylococcus aureus 12732; type: functional, organism-based
Staphylococcus aureus [3] = test: Antimicrobial activity against methicillin-resistant Staphylococcus aureus; type: functional, organism-based
Candida albicans = test: Antimicrobial activity against Candida albicans IFO 1269; type: functional, organism-based
Cryptococcus neoformans = test: Antimicrobial activity against Cryptococcus neoformans TIMM 0354; type: functional, organism-based
Escherichia coli = test: Antimicrobial activity against Escherichia coli upto 12.5 ug/ml; type: functional, organism-based
Pseudomonas aeruginosa = test: Antimicrobial activity against Pseudomonas aeruginosa upto 12.5 ug/ml; type: functional, organism-based
[4] = target: Human immunodeficiency virus type 1 integrase (Human immunodeficiency virus 1) (UniProt Q7ZJM1); test: Inhibition of HIV1 integrase at 10 ug/ml
Sequence of Human immunodeficiency virus type 1 integrase (Human immunodeficiency virus 1) (Q7ZJM1 as listed by the source): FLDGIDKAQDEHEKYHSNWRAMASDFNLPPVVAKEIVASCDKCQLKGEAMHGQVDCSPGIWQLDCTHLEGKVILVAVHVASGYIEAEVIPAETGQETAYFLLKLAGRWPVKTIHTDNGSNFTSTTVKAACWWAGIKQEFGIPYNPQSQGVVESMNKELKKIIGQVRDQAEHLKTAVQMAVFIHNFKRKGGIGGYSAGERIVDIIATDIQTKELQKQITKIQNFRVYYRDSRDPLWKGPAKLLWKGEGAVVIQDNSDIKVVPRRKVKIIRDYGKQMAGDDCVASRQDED

Enterococcus faecium = test: Antimicrobial activity against Enterococcus faecium 12367; type: functional, organism-based

Row | Activity [4] | Structure (SMILES) | IC50 [1] [µg/mL] | IC50 (Enterococcus faecalis) [µg/mL] | IC50 (Staphylococcus aureus [2]) [µg/mL] | IC50 (Staphylococcus aureus [3]) [µg/mL] | IC50 (Candida albicans) [µg/mL] | IC50 (Cryptococcus neoformans) [µg/mL] | Activity (Escherichia coli) | Activity (Pseudomonas aeruginosa) | IC50 (Enterococcus faecium) [µg/mL]
1 | inactive | COCNC(=O)c1ccc(Br)[nH]1 | – | – | – | – | – | – | inactive | inactive | –
2 | – | CC1=CCC[C@@H]2[C@@](C)(CC/C(C)=C/Cn3c[n+](C)c4ncnc(N)c43)[C@H](C)CC[C@@]12C.[Cl-] [AGELASINE B] | 1.56 | 6.25 | 0.78 | 3.13 | > 12.5 | 3.13 | – | – | 3.13
3 | inactive | C=C1CC[C@]2(C)[C@@H](C)CCC[C@]2(C)[C@H]1CC/C(C)=C/Cn1c[n+](C)c2ncnc(N)c21 | – | – | – | – | – | – | inactive | inactive | –

Row | Structure (SMILES) | Activity [4] | IC50 [1] [µg/mL] | IC50 (Enterococcus faecalis) [µg/mL] | IC50 (Staphylococcus aureus [2]) [µg/mL] | IC50 (Staphylococcus aureus [3]) [µg/mL] | IC50 (Candida albicans) [µg/mL] | IC50 (Cryptococcus neoformans) [µg/mL] | Activity (Escherichia coli) | Activity (Pseudomonas aeruginosa) | IC50 (Enterococcus faecium) [µg/mL]
4 | NC(=O)c1ccc(Br)[nH]1 | inactive | 3.13 (≈ 16.6 µM) | 6.25 (≈ 33.1 µM) | 0.78 (≈ 4.13 µM) | 3.13 (≈ 16.6 µM) | 6.25 (≈ 33.1 µM) | 3.13 (≈ 16.6 µM) | inactive | inactive | 3.13 (≈ 16.6 µM)
